Marks after values point to notes of the source that are not given here.
Assays:
[1] = system: HUVEC (human umbilical vein endothelial cells); test: Angiogenesis, tube formation on Matrigel; type: cell-based; settings: for %, Inhibition of the total tube length (Mean ± SEM, n = 2): HUVEC, 18 hours
Procedure: Test Substance and Concentration.
Cell Line and Culture Media.
Evaluation of anti-proliferation for test substances. Matrigel matrix was thawed, kept on ice at 4° C. and 50 μL transferred to each well of a 96-microwell tissue culture plate. The plate was incubated at 37° C. for at least one hour to allow the matrix solution to solidify before treatment.
Aliquots of 200 μl of (HUVEC) suspension (about 1.5×10^4 cells/well) were placed in 96-well microtiter plate. Two microliters of compound test solution or vehicle (40% DMSO) was then added per well in duplicate and incubated at 5% CO2 at 37° C. for 18 hours. The final concentration of DMSO was 0.4%. […] Failure to form continuous networks between cell bodies in the presence of test substance was photographed and scored as to the extent of tube disruption at a magnification of 40×. […] The minimum inhibitory concentration (MIC) was calculated to assess the effect of the test substance on angiogenesis.

caspase 3 = test: Western blotting, caspase 3 in AsPC-1 cells; type: cell-based, human; settings: 4 μg/mL, time-dependent (FIG. 3)
Procedure: Western blotting. Cells were seeded into flasks and cultured to 50% to 60% confluence for 24 hours. Cells were then placed in serum-free medium with or without 4 μg/mL frondoside A for periods of 0, 24, 48 and 72 hours respectively. Proteins were extracted from attached and floating cells in lysis buffer containing 4% SDS. Protein concentrations were determined using the bicinchoninic acid assay with BSA as standard. Western blotting was carried out. In brief, equal amounts of protein in the cell lysates were separated on 15% SDS-PAGE and the proteins were transferred onto nitrocellulose membranes. After blocking non-specific sites with dried milk, membranes were incubated with the appropriate dilution of primary antibody. Membranes were then incubated with a horseradish peroxidase conjugated secondary antibody. Proteins were detected using an enhanced chemiluminescence detection system.

[2] = system: DLD-1 (human colon adenocarcinoma); test: cells; settings: for Percent Growth (Mean ± SEM, n = 2): 72-hour
Procedure: Test Substance and Concentration. Frondoside A (CBR-24) was dissolved in 100% DMSO and then diluted with sterile distilled water to obtain initial working solutions of 10000, 1000, 100, 10, and 1 μM in 40% DMSO. A 100-fold dilution was further made in culture media to generate final assay concentration of 100, 10, 1, 0.1 and 0.01 μM in 0.4% of DMSO.
Cell Line and Culture Media. The tumor cell line DLD-1 (human colon adenocarcinoma), obtained from American Type Culture Collection (ATCC CCL-221), was incubated in 95% air-5% CO2 gas mixture at 37° C. The culture medium used was RPMI 1640 with 10% fetal bovine serum, which was supplemented with 1% Antibiotic-Antimycotic.
Evaluation of anti-proliferation for test substances. Aliquots of 100 μl of cell suspension (about 2.5×10^3 cells/well) were placed in 96-well microtiter plates in an atmosphere of 5% CO2 at 37° C. […] Thus, the final concentration of DMSO was 0.4%. The Frondoside A was evaluated for possible inhibitory effects on cell proliferation at concentrations of 100, 10, 1, 0.1 and 0.01 μM. At the end of incubation, 20 μl of 90% alamarBlue reagent was added to each well for another 6 hour incubation before detection of cell viability by fluorescent intensity. Fluorescent intensity was measured using a Spectrafluor Plus plate reader with excitation at 530 nm and emission at 590 nm.
Determination of IC50, TGI and LC50. The measured results were calculated by the following formula: PG(%)=100%×(Mean Ftest−Mean Ftime0)/(Mean Fctrl−Mean Ftime0) If (Mean Ftest−Mean Ftime0)<0, then PG (%)=100%×(Mean Ftest−Mean Ftime0)/(Mean Ftime0−Mean Fblank) Where: • PG: percent growth • Mean Ftime0=The average of 2 measured fluorescent intensities of reduced alamarBlue at the time just before exposure of cells to the test substance. • Mean Ftest=The average of 2 measured fluorescent intensities of alamarBlue after 72-hour exposure of cells to the test substance. • Mean Fctrl=The average of 2 measured fluorescent intensities of alamarBlue after 72-hour incubation without the test substance. • Mean Fblank=The average of 2 measured fluorescent intensities of alamarBlue in medium without cells after 72-hour incubation.

AsPC-1 cells = test: TUNEL assay; type: cell-based, human; settings: 4 μg/mL, 72 hours; control 2.4%, P<0.001
Procedure: Terminal deoxynucleotidyl transferase-mediated deoxyuridine triphosphate nick-end labeling (TUNEL) assay. The assay was carried out for terminal incorporation of fluorescein 12-dUTP by terminal deoxynucleotidyl transferase into fragmented DNA in cancer cells (TUNEL assay kits, Promega, Madison, Wis.). Cells were cultured to 50%–60% confluence in T75 flasks in serum-free conditions for 24 hours and then treated with or without 4 μg/mL Frondoside A for 72 hours. Cells were then trypsinized and fixed in 1% methanol-free formaldehyde-PBS for 15 minutes. At the end of treatment, cells were harvested with trypsin-EDTA solution to produce a single cell suspension. Cells were then pelleted by centrifugation and washed twice with PBS. Cell pellets were suspended in 0.5 ml PBS and fixed in ice-cold 70% ethanol at 4° C. Fixed cells were centrifuged at 300×g for 10 minutes and pellets were washed with PBS. After resuspension with 1 ml PBS, cells were incubated with 10 μL of RNase I (10 mg/mL) and 100 μL of propidium iodide (400 μg/mL; Sigma) and shaken for 1 hour at 37° C. in the dark. Samples were analyzed by flow cytometry. Laser flow cytometry was used to quantify the green fluorescence of fluorescein-12-dUTP incorporated against the red fluorescence of propidium iodide.

Question: What does the source list for COC1C(O)C(CO)OC(OC2C(O)COC(OC3C(C)OC(OC4C(OC5CCC6(C)C7CCC89C(=O)OC(C)(CCCC(C)C)C8C(OC(C)=O)CC9(C)C7=CCC6C5(C)C)OCC(OS(=O)(=O)[O-])C4O)C(OC4OCC(O)C(O)C4O)C3O)C2O)C1O.[Na+] [Frondoside A, 3-O-methyl-β-D-glucopyranosyl-(1→3)-β-D-xylopyranosyl-(1→4)-[β-D-xylopyranosyl-(1→2)]-β-D-quinovopyranosyl-(1→2)-4-O-sodium sulfate-β-D-xylopyranosyl-3-O-holost-7(8)-en-3β-ol-16β-O-acetate]?
Answer: inhibition of tube formation relative to the vehicle-treated controls ([1]; 100, 10 and 1 μM (≧30%)): significant inhibition; %, Inhibition of the total tube length (Mean ± SEM, n = 2) ([1]; 0.01 μM): 1 ± 1%; %, Inhibition of the total tube length (Mean ± SEM, n = 2) ([1]; 0.1 μM): 3 ± 4%; %, Inhibition of the total tube length (Mean ± SEM, n = 2) ([1]; 1 μM): 88 ± 6^a,b %; %, Inhibition of the total tube length (Mean ± SEM, n = 2) ([1]; 10 μM): 100 ± 0^a %; %, Inhibition of the total tube length (Mean ± SEM, n = 2) ([1]; 100 μM): 100 ± 0^a %; MIC (Minimum Inhibitory Concentration) ([1]; tube formation, significant inhibition ≧30%): 1 µM; activation of caspase 3 (cleavage of procaspase 3) (caspase 3): cleaved into products of lower molecular weight; growth inhibition of DLD-1 cells relative to the vehicle-treated control ([2]; 10 μM and 100 μM (≦50% of cell proliferation)): significant growth inhibition; Percent Growth (Mean ± SEM, n = 2) ([2]; DLD-1, 0.01 μM): 93 ± 5%; Percent Growth (Mean ± SEM, n = 2) ([2]; DLD-1, 0.1 μM): 84 ± 11%; Percent Growth (Mean ± SEM, n = 2) ([2]; DLD-1, 1 μM): 79 ± 5%; Percent Growth (Mean ± SEM, n = 2) ([2]; DLD-1, 10 μM): 12 ± 0%; Percent Growth (Mean ± SEM, n = 2) ([2]; DLD-1, 100 μM): −79 ± 5%; TGI (Total Growth Inhibition) ([2]; DLD-1, semi-quantitative, nonlinear regression): 12 µM; IC50 ([2]; read-out: IC50 (50% Inhibition Concentration), DLD-1, semi-quantitative, nonlinear regression): 3.6 µM; CC50 ([2]; read-out: LC50 (50% Lethal Concentration), DLD-1, semi-quantitative, nonlinear regression): 41 µM; TUNEL staining (AsPC-1 cells): 36.1%

From patent US7144867B2, “Anticancer glycoside compounds” (priority 2004, dated 2006)
